How the values were obtained:
[1] = Acidic pH stability of dyed fabrics (colour fastness, ΔE); type: physicochemical; details: pH 5 with HCl
Procedure: (§1) In order to assess the stability and colour fastness of violacein and violacein derivatives dyed onto fabrics, dyed fabrics were subjected to a number of conditions. Fabrics were dyed according to Example 18 and colour coordinates and colour change before and after exposure to a given condition were determined as described in Example 18. To measure temperature stability, fabrics were incubated in an oven set to 80° c. for 4 h. To measure stability under acid and alkaline conditions, fabrics were fully submerged in water solutions set to pH 8 with NaOH and pH 5 with HCl and incubated at room temperature for 30 minutes. Fabrics were then incubated at 37° c. for 4 h. To measure stability during laundering, fabrics were washed at 30° c. under the “mix” setting of a Siemens IQ300 washing machine, then dried in a Siemens IQ300 dryer until dry. To measure artificial light stability, fabrics were placed under an LED lamp at room temperature for 16 h. To measure UV light stability, fabrics were placed under a UV lamp at room temperature for 1 h.

[2] = UV stability of dyed fabrics (colour fastness, ΔE); type: physicochemical; details: for ΔE: before vs after UV lamp, room temperature, 1 h
Procedure: as §1

E. coli DH5a = experiment: Antimicrobial activity of dyed Nylon 6,6 fabric: final OD600 and % inhibition; type: cell-based
Procedure: (§2) Violacein is reported as being a potent antibiotic, capable of inhibiting the growth of a wide range of microbial kingdoms including bacteria, yeast, fungi, viruses, protozoa and nematode. […] To test this, overnight cultures of wild-type E. coli DH5a and S. cerevisiae S228c strains were diluted in 5 mL of cultivation media (LB for E. coli, minimal media for S. cerevisiae) to a starting OD600 of 0.1. 1.5×1.5 cm dyed Nylon 6,6 fabric strips were sterilized by submerging in 75% ethanol for 15 mins and air drying in a laminar air flow hood before adding to each culture (with undyed Nylon 6,6 fabric as a negative control). […] This experiment provides evidence that all violacein derivatives display antimicrobial properties.

S. cerevisiae S228c = experiment: as above; type: cell-based
Procedure: as §2

[3] = UV absorption capability (absorbance maxima, UV-A, UV-B, UV-C absorption) by HPLC; type: physicochemical
Procedure: The software Agilent Openlab CDS Chemstation Rev.
Violacein is reported as being a potent UV absorbent able to effectively absorb UV radiation, however, much less is known about the other violacein derivatives. To investigate the potential of using violacein and violacein derivatives as UV inhibitors and to potentially impart UV protection to fabrics, the UV absorption spectra of each compound was analyzed by HPLC and the total absorption capability at each of the most relevant UV wavelengths quantified.
For the quantification of UV absorption capacity of the compound of interest, a chromatographic separation on the F5 column and a gradient of water/acetonitrile containing 0.05% formic acid was run according to Example 5). […] The compounds were quantified based on the signal at 230 nm, using calibration curves of authentic analytical standards.
The UV absorption capacity is represented in mAU.min/mM. UV-A, UV-B and UV-C represent the most relevant regions where UV protection is required. UV-C is the most harmful type of UV radiation and can be generated by inorganic sources. UV-B radiation predominantly comes from the suns rays and is responsible for sun burn. UV-A radiation is also derived predominantly from the suns rays, and while UV-A radiation is less harmful than UV-B or UV-C but is much more prevalent.

[4] = Acrylic, after test (UV lamp, room temperature, 1 h)
[5] = Bleached cotton, after test (UV lamp, room temperature, 1 h)
[6] = Diacetate, after test (UV lamp, room temperature, 1 h)
[7] = Nylon 6,6, after test (UV lamp, room temperature, 1 h)
[8] = Polyester, after test (UV lamp, room temperature, 1 h)
[9] = Wool, after test (UV lamp, room temperature, 1 h)

O=C1N=C(c2c[nH]c3ccc(O)cc23)C=C1c1c[nH]c2ccccc12 [proviolacein]
L ([1]; Acrylic, After test): 58.2 | a ([1]; Acrylic, After test): −1.53 | b ([1]; Acrylic, After test): 3.12 | L ([1]; Acrylic, Before test): 59.15 | a ([1]; Acrylic, Before test): −0.61 | b ([1]; Acrylic, Before test): 1.45 | ΔE ([1]; Acrylic, before and after the stability test): 2.13 | L ([1]; Bleached cotton, After test): 65.48 | a ([1]; Bleached cotton, After test): 1.87 | b ([1]; Bleached cotton, After test): 2.2 | L ([1]; Bleached cotton, Before test): 62.48 | a ([1]; Bleached cotton, Before test): 1.73 | b ([1]; Bleached cotton, Before test): 2.27 | ΔE ([1]; Bleached cotton, before and after the stability test): 3.00 | L ([1]; Diacetate, After test): 59.6 | a ([1]; Diacetate, After test): 4.35 | b ([1]; Diacetate, After test): 7.87 | L ([1]; Diacetate, Before test): 60.94 | a ([1]; Diacetate, Before test): 4.79 | b ([1]; Diacetate, Before test): 4.9 | ΔE ([1]; Diacetate, before and after the stability test): 3.29 | L ([1]; Nylon 6,6, After test): 52.72 | a ([1]; Nylon 6,6, After test): −1.67 | b ([1]; Nylon 6,6, After test): −3.52 | L ([1]; Nylon 6,6, Before test): 50.84 | a ([1]; Nylon 6,6, Before test): 0.04 | b ([1]; Nylon 6,6, Before test): −4.68 | ΔE ([1]; Nylon 6,6, before and after the stability test): 2.79 | L ([1]; Polyester, After test): 64.14 | a ([1]; Polyester, After test): −1.28 | b ([1]; Polyester, After test): 2.92 | L ([1]; Polyester, Before test): 64.55 | a ([1]; Polyester, Before test): −1.43 | b ([1]; Polyester, Before test): 1.3 | ΔE ([1]; Polyester, before and after the stability test): 1.68 | L ([1]; Wool, After test): 66.56 | a ([1]; Wool, After test): −0.93 | b ([1]; Wool, After test): 5.56 | L ([1]; Wool, Before test): 65.49 | a ([1]; Wool, Before test): −1.55 | b ([1]; Wool, Before test): 5.81 | ΔE ([1]; Wool, before and after the stability test): 1.26 | L [2, 4]: 57.07 | a [2, 4]: 0.02 | b [2, 4]: 1.94 | L ([2]; Acrylic, before test): 57.31 | a ([2]; Acrylic, before test): −0.99 | b ([2]; Acrylic, before test): 2.73 | ΔE ([2]; Acrylic): 1.30 | L [2, 5]: 64.92 | a [2, 5]: 1.27 | b [2, 5]: 3.29 | L ([2]; Bleached cotton, before test): 64.65 | a ([2]; Bleached cotton, before test): 0.4 | b ([2]; Bleached cotton, before test): 2.43 | ΔE ([2]; Bleached cotton): 1.25 | L [2, 6]: 61.92 | a [2, 6]: 3.89 | b [2, 6]: 6.22 | L ([2]; Diacetate, before test): 61.25 | a ([2]; Diacetate, before test): 3.87 | b ([2]; Diacetate, before test): 4.46 | ΔE ([2]; Diacetate): 1.88 | L [2, 7]: 57.07 | a [2, 7]: 0.02 | b [2, 7]: 1.94 | L ([2]; Nylon 6,6, before test): 57.31 | a ([2]; Nylon 6,6, before test): −0.99 | b ([2]; Nylon 6,6, before test): 2.73 | ΔE ([2]; Nylon 6,6): 1.30 | L [2, 8]: 65.53 | a [2, 8]: −1.02 | b [2, 8]: 0.99 | L ([2]; Polyester, before test): 64.26 | a ([2]; Polyester, before test): −2.11 | b ([2]; Polyester, before test): 1.21 | ΔE ([2]; Polyester): 1.69 | L [2, 9]: 62.87 | a [2, 9]: −0.07 | b [2, 9]: 5.48 | L ([2]; Wool, before test): 62.43 | a ([2]; Wool, before test): −0.15 | b ([2]; Wool, before test): 5.23 | ΔE ([2]; Wool): 0.51 | Final OD600 (E. coli DH5a; E. coli cultured overnight at 30° c. with dyed Nylon 6,6 fabric strip, starting OD600 0.1): 4.52 | % Inhibition (E. coli DH5a; E. coli, dyed Nylon 6,6 fabric vs undyed fabric control): 13.33% | Final OD600 (S. cerevisiae S228c; S. cerevisiae cultured overnight at 30° c. with dyed Nylon 6,6 fabric strip, starting OD600 0.1): 4.39 | % Inhibition (S. cerevisiae S228c; S. cerevisiae, dyed Nylon 6,6 fabric vs undyed fabric control): 18.13% | growth inhibition of S. cerevisiae (S. cerevisiae S228c; dyed Nylon 6,6 fabric strip in culture, overnight 30° c., OD600 versus undyed fabric): most inhibited | UV absorption capability in the UV-B region ([3]; 305 nm): particularly high | Total UV absorption UV C (245 nm) ([3]; AUC of HPLC peak at 245 nm per mM): 3142.9 (mAU · min)/mM | Total UV absorption UV B (305 nm) ([3]; AUC of HPLC peak at 305 nm per mM): 4097.7 (mAU · min)/mM | Total UV absorption UV A (360 nm) ([3]; AUC of HPLC peak at 360 nm per mM): 0 (mAU · min)/mM
